Measured values reported in patent publication US12607622B2, “Method for diagnosing and monitoring inflammatory disease progression” (MCMASTER UNIVERSITY, priority 2013, dated 2026).

Test system: BDNF
Test: BDNF transcript expression in the uterus of ovariectomized mice by Real Time PCR
Assay type: in vivo
Settings: estradiol primed, Real Time PCR relative expression, FIG. 8
Protocol: BDNF transcripts were measured in the murine uterus of ovariectomized mice by Real Time PCR and relative expression quantified in mice receiving saline (Control (n=4)), estradiol primed then estradiol (E2 (n=6)), estradiol primed then progesterone (P4 (n=6)), estradiol primed then estradiol+progesterone (E2+P4 (n=6)), or estradiol primed then saline (Saline (n=4). [table]

Structure (SMILES): CC(=O)[C@H]1CC[C@H]2[C@@H]3CCC4=CC(=O)CC[C@]4(C)[C@H]3CC[C@]12C [P4, progesterone]
- BDNF expression in the uterus: significantly increased
